The values below come from US9834823B2, “Primers, assays and methods for detecting an E. coli subtype” (priority 2012, dated 2017).

Format in all cases: cell-based
Assay [1] concerns Escherichia coli clinical isolates (ESBL-positive and ESBL-negative; ST131 subclones). Briefly: Broth microdilution antimicrobial susceptibility, NorthShore ESBL case-control isolates. Particulars: for No. of resistant isolates (column %), H30-Rx (N = 47): H30-Rx subclone isolates (N = 47) within the H30 ST131 subclone; for No. of resistant isolates (column %), H30, non-Rx (N = 15): H30 non-Rx isolates (N = 15) within the H30 ST131 subclone; for No. of resistant isolates (column %), H30 (N = 62): H30 subclone isolates (N = 62) among 71 E. coli ST131 isolates; for No. of resistant isolates (column %), Non-H30 (N = 9): non-H30 isolates (N = 9) among 71 E. coli ST131 isolates. The source says:
As reported elsewhere, the 267 E. coli study isolates were collected between 2007 and 2010 as part of a prospective case-control study conducted at NorthShore University HealthSystem (Banerjee, R J et al. “Predictors and molecular epidemiology of community-onset extended-spectrum beta-lactamase (ESBL) Escherichia coli infection in a Midwestern community,” 2013 Infect Control Hosp Epidemiol; in press). Cases were defined as adults with ESBL-producing E. coli cultured from any specimen type. Controls were defined as the 1 or 2 patients with non-ESBL E. coli isolates identified just subsequent to the case isolate, and with the same specimen type and location of collection. Isolates obtained in the outpatient setting or within 48 hours of hospital admission were considered causes of community-associated infection. Further study details are as described (Banerjee, R J et al. “Predictors and molecular epidemiology of community-onset extended-spectrum beta-lactamase (ESBL) Escherichia coli infection in a Midwestern community,” 2013 Infect Control Hosp Epidemiol; in press).
The resistance score was the total number of agents to which an isolate was resistant. This study was approved by the NorthShore and VA Medical Center institutional review boards.
For orientation: In broth dilution the organism is exposed to a series of concentrations in liquid medium.

The test system of assay [2] is extraintestinal Escherichia coli isolates. Briefly: Antimicrobial susceptibility testing (CLSI breakpoints), Olmsted County isolates. Particulars: for Resistance prevalence among H30 ST131: H30 ST131 subclone, N = 70; for Resistance prevalence among non-H30 ST131: non-H30 ST131, N = 10.
Assay [3] has as its system Escherichia coli clinical isolates from U.S. veterans. Briefly: Susceptibility testing (broth microdilution or disk diffusion) at VAMCs with population back-calculations. Particulars: for Prevalence of resistance, H30 ST131: H30 ST131 subclone isolates (H30 subclone vs. others); for Prevalence of resistance, ST131: ST131 isolates (ST131 vs. others); for Prevalence of resistance, Total (%): all isolates; for Estimated fraction due to ST131: fraction of resistance phenotype due to ST131; for Overall prevalence in population, %: resistance phenotype, back-calculated with 29% FQ resistance.

[4] abbreviates: ESBL-negative isolates, All N = 167.
Where [5] appears, read: ESBL-negative isolates, Non-ST131 N = 145.
Where [6] appears, read: ESBL-negative isolates, ST131 N = 22.
Setting [7] is: ESBL-positive isolates, All N = 100.
The mark [8] stands for this setting: ESBL-positive isolates, Non-ST131 N = 51.
The mark [9] stands for this setting: ESBL-positive isolates, ST131 N = 49.
The mark [10] stands for this setting: all non-H30 isolates (H30 subclone vs. others).
[11] abbreviates: all non-ST131 isolates (ST131 vs. others).
Where [12] appears, read: resistance prevalence among H30 ST131 subclone isolates relative to all other isolates.
Setting [13] is: resistance prevalence among ST131 isolates relative to all other isolates.

For `CC1(C)S[C@@H]2[C@H](NC(=O)[C@H](N)c3ccccc3)C(=O)N2[C@H]1C(=O)O` [Ampicillin, ampicillin], the “No. resistant (column %)” value is given as 73 (44) in assay [1] (setting [4]); 54 (37) in assay [1] (setting [5]); 19 (86) in assay [1] (setting [6]); 100 (100) in assay [1] (setting [7]); 51 (100) in assay [1] (setting [8]); 49 (100) in assay [1] (setting [9]). Also, the “No. of resistant isolates (column %), H30-Rx (N = 47)” value in assay [1] is given as 46 (98) No. (column %). Besides, the “No. of resistant isolates (column %), H30, non-Rx (N = 15)” value in assay [1] is recorded as 15 (100) No. (column %). Besides, in assay [1], the “No. of resistant isolates (column %), H30 (N = 62)” value is 61 (98) No. (column %). Moreover, the “No. of resistant isolates (column %), Non-H30 (N = 9)” value in assay [1] is 7 (78) No. (column %). Moreover, the “No. of resistant isolates (column %)” value in assay [2] (All isolates, N = 299) was 156 (52); in assay [2] (Other STs, N = 129) it was 3 (41); in assay [2] (ST9, N = 32), 13 (41); in assay [2] (ST69, N = 15), 11 (73); in assay [2] (ST73, N = 25), 10 (40); in assay [2] (ST127, N = 18), 4 (22). Also, the “No. of resistant isolates (column %)” value in assay [2] (ST131, N = 80) is reported as 65 (81). Further, the “Resistance prevalence among H30 ST131” value in assay [2] is given as 81%. The “Resistance prevalence among non-H30 ST131” value in assay [2] came to 80%. Also, the “Prevalence of resistance, H30 ST131” value in assay [3] is 76. In assay [3], the “Prevalence of resistance, ST131” value is 77. Further, the “Prevalence of resistance, Total (%)” value in assay [3] is on record as 46%. Also, the “Prevalence of resistance, Others (%)” value in assay [3] (setting [10]) is recorded as 36%; in assay [3] (setting [11]), 34%. The “Estimated fraction due to ST131” value in assay [3] is reported as “.46”. The “Overall prevalence in population, %” value in assay [3] is given as 46%. Also, the “Prevalence ratio of resistance” value was 2.1 in assay [3] (setting [12]) and 2.3 in assay [3] (setting [13]).

In the case of `O=C1CN(/N=C/c2ccc([N+](=O)[O-])o2)C(=O)N1` [Nitrofurantoin, nitrofurantoin], the “No. of resistant isolates (column %)” value is given as 8 (3) in assay [2] (All isolates, N = 299); 3 (2) in assay [2] (Other STs, N = 129); 1 (3) in assay [2] (ST9, N = 32); 0 in assay [2] (ST69, N = 15); 1 (4) in assay [2] (ST73, N = 25); 0 in assay [2] (ST127, N = 18). For the same compound, the “No. of resistant isolates (column %)” value in assay [2] (ST131, N = 80) is recorded as 3 (4). Moreover, the “Resistance prevalence among H30 ST131” value in assay [2] was determined as 3%. For the same compound, the “Resistance prevalence among non-H30 ST131” value in assay [2] is reported as 13%. The “Prevalence of resistance, H30 ST131” value in assay [3] is reported as 8. In addition, the “Prevalence of resistance, ST131” value in assay [3] is 8. In addition, in assay [3], the “Prevalence of resistance, Total (%)” value is 6%. In addition, the “Prevalence of resistance, Others (%)” value in assay [3] (setting [10]) and in assay [3] (setting [11]) was 5% in each case. Also, the “Estimated fraction due to ST131” value in assay [3] was “.36”. The “Overall prevalence in population, %” value in assay [3] was 6%. For the same compound, the “Prevalence ratio of resistance” value in assay [3] (setting [12]) is 3.4; in assay [3] (setting [13]), 3.2.

Consider `C[C@@H](O)[C@H]1C(=O)N2C(C(=O)O)=C(SCCN=CN)C[C@H]12` [Imipenem, imipenem], for which the “No. of resistant isolates (column %)” value is recorded as 3 (1) in assay [2] (All isolates, N = 299); 1 (1) in assay [2] (Other STs, N = 129); 0 in assay [2] (ST9, N = 32); 0 in assay [2] (ST69, N = 15); 0 in assay [2] (ST73, N = 25); 2 (14) in assay [2] (ST127, N = 18). In addition, the “No. of resistant isolates (column %)” value in assay [2] (ST131, N = 80) came out at 0. Also, in assay [3], the “Prevalence of resistance, H30 ST131” value is on record as 0.5. For the same compound, in assay [3], the “Prevalence of resistance, ST131” value is 0.4. In addition, the “Prevalence of resistance, Total (%)” value in assay [3] is listed as 0.25%. Further, the “Prevalence of resistance, Others (%)” value in assay [3] (setting [10]) and in assay [3] (setting [11]) was 0.2% throughout. Besides, the “Estimated fraction due to ST131” value in assay [3] is reported as “.50”. The “Overall prevalence in population, %” value in assay [3] was 0.25%. Further, the “Prevalence ratio of resistance” value in assay [3] (setting [12]) and in assay [3] (setting [13]) was 1.4 throughout.

For the compound piperacillin/tazobactam, the “No. of resistant isolates (column %)” value is 6 (2) in assay [2] (All isolates, N = 299); 2 (2) in assay [2] (Other STs, N = 129); 0 in assay [2] (ST9, N = 32); 0 in assay [2] (ST69, N = 15); 2 (8) in assay [2] (ST73, N = 25); 1 (6) in assay [2] (ST127, N = 18). Further, the “No. of resistant isolates (column %)” value in assay [2] (ST131, N = 80) is on record as 1 (1). The “Resistance prevalence among H30 ST131” value in assay [2] was found to be 1%. Also, the “Resistance prevalence among non-H30 ST131” value in assay [2] came to 0%.

For the compound ampicillin/sulbactam, in assay [3], the “Prevalence of resistance, H30 ST131” value is 57; the “Prevalence of resistance, ST131” value was 58; the “Prevalence of resistance, Total (%)” value was 34%; the “Estimated fraction due to ST131” value is recorded as “.48”. In addition, the “Overall prevalence in population, %” value in assay [3] is given as 34%. Moreover, the “Prevalence of resistance, Others (%)” value in assay [3] (setting [10]) is given as 27%. In addition, the “Prevalence of resistance, Others (%)” value in assay [3] (setting [11]) is 24%. In assay [3] (setting [12]), the “Prevalence ratio of resistance” value is 2.1. In addition, the “Prevalence ratio of resistance” value in assay [3] (setting [13]) is recorded as 2.4.

In the case of `CO/N=C(\C(=O)N[C@@H]1C(=O)N2C(C(=O)O)=C(CSc3nc(=O)c(=O)[nH]n3C)CS[C@H]12)c1csc(N)n1` [Ceftriaxone, ceftriaxone], the “No. resistant (column %)” value in assay [1] (setting [4]) is on record as 1 (1); in assay [1] (setting [5]), 1 (1); in assay [1] (setting [6]) it was 0 (0); in assay [1] (setting [7]) it was 98 (98); in assay [1] (setting [8]), 51 (100); in assay [1] (setting [9]), 47 (96). Besides, the “No. of resistant isolates (column %), H30-Rx (N = 47)” value in assay [1] is given as 42 (89) No. (column %). The “No. of resistant isolates (column %), H30, non-Rx (N = 15)” value in assay [1] is 4 (27) No. (column %). The “No. of resistant isolates (column %), H30 (N = 62)” value in assay [1] is recorded as 46 (74) No. (column %). The “No. of resistant isolates (column %), Non-H30 (N = 9)” value in assay [1] is given as 1 (11) No. (column %). For the same compound, the “No. of resistant isolates (column %)” value in assay [2] (All isolates, N = 299) was 16 (6); in assay [2] (Other STs, N = 129), 8 (7); in assay [2] (ST9, N = 32), 0; in assay [2] (ST69, N = 15), 0; in assay [2] (ST73, N = 25), 0; in assay [2] (ST127, N = 18), 0. Besides, the “No. of resistant isolates (column %)” value in assay [2] (ST131, N = 80) is reported as 8 (11). Further, the “Resistance prevalence among H30 ST131” value in assay [2] is reported as 9%. Moreover, in assay [2], the “Resistance prevalence among non-H30 ST131” value came out at 29%. For the same compound, the “Prevalence of resistance, H30 ST131” value in assay [3] is 4. For the same compound, in assay [3], the “Prevalence of resistance, ST131” value is recorded as 3. Also, in assay [3], the “Prevalence of resistance, Total (%)” value is on record as 2%. Also, the “Prevalence of resistance, Others (%)” value in assay [3] (setting [10]) and in assay [3] (setting [11]) was 2% throughout. The “Estimated fraction due to ST131” value in assay [3] is on record as “.43”. Moreover, the “Overall prevalence in population, %” value in assay [3] was 2%. The figures for the “Prevalence ratio of resistance” value in assay [3] (setting [12]) and in assay [3] (setting [13]) were 2.0 and 1.9, respectively.

As for `CC(C)(O/N=C(\C(=O)N[C@@H]1C(=O)N2C(C(=O)[O-])=C(C[n+]3ccccc3)CS[C@H]12)c1csc(N)n1)C(=O)O` [Ceftazidime], the “No. resistant (column %)” value in assay [1] (setting [4]) was 1 (1); in assay [1] (setting [5]), 1 (1); in assay [1] (setting [6]) it was 0 (0); in assay [1] (setting [7]), 92 (92); in assay [1] (setting [8]) it was 47 (92); in assay [1] (setting [9]) it was 45 (92). Moreover, the “No. of resistant isolates (column %), H30-Rx (N = 47)” value in assay [1] is recorded as 40 (85) No. (column %). Moreover, the “No. of resistant isolates (column %), H30, non-Rx (N = 15)” value in assay [1] is recorded as 4 (27) No. (column %). In assay [1], the “No. of resistant isolates (column %), H30 (N = 62)” value is listed as 44 (71) No. (column %). Further, the “No. of resistant isolates (column %), Non-H30 (N = 9)” value in assay [1] was 1 (11) No. (column %).
